From ChEMBL document CHEMBL5131409, “Synthesis and characterization of chiral 6-azaspiro[2.5]octanes as potent and selective antagonists of the M4 muscarinic acetylcholine receptor” (Bioorg Med Chem Lett, 2022)
Substitutions are numbered along the chain they refer to. pIC50, pKi: −log10 of the molar value.

Experiments:
[1] = Selectivity ratio of IC50 for inhibition of human muscarinic acetylcholine M2 receptor to IC50 for inhibition of human muscarinic acetylcholine M4 receptor expressed in CHO cells co-expressing Gqi5 in the presence of acetylcholine at EC80 concentration by calcium mobilization assay; type: cell-based
[2] = Intrinsic clearance in human liver microsomes; type: ADME, Microsome; conditions: read-out: CLH
[3] = target: T1, Cytochrome P450 1A2 (Homo sapiens, UniProt P05177); assay: Inhibition of CYP1A2 in human liver microsomes using cocktail of isoform-specific probe substrate; type: ADME, Microsome
T1 sequence (P05177 whole entry): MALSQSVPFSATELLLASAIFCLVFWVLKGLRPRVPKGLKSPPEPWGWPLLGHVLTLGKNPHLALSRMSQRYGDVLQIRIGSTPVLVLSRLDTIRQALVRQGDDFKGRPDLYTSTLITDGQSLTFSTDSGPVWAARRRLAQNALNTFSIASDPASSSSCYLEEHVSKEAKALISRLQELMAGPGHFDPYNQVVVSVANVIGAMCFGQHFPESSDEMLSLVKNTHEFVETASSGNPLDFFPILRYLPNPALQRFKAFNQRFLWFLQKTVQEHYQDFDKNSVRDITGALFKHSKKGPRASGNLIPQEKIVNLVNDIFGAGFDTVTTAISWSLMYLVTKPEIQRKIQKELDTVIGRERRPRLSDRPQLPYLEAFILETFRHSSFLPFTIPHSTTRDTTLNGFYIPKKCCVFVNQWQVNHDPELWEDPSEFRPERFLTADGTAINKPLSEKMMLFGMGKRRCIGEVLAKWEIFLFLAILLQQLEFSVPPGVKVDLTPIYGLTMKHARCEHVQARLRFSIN

[4] = AUC (0.25 to last) in mouse brain at 3 mg/kg, ip; type: ADME, organism-based; conditions: in vivo
[5] = Tmax in mouse brain at 3 mg/kg, ip; type: ADME, organism-based
[6] = target: T2, Muscarinic acetylcholine receptor M4 (Homo sapiens, UniProt P08173); assay: Displacement of [3H]-NMS from human muscarinic acetylcholine M4 receptor expressed in CHO cell membrane by competitive binding assay; type: cell membranes
T2 sequence (P08173 whole entry): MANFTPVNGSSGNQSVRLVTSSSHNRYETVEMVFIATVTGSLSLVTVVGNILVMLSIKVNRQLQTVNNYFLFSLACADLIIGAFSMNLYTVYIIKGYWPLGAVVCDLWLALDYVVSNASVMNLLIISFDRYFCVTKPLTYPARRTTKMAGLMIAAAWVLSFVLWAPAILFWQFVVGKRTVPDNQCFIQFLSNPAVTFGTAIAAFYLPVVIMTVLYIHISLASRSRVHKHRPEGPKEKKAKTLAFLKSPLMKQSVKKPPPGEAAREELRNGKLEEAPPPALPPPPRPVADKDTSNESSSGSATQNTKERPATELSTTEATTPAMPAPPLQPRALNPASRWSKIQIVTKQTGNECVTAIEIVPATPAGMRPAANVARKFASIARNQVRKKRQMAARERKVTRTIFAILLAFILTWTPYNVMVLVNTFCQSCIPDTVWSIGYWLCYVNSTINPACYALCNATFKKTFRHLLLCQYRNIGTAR

[7] = Tmax in mouse plasma at 3 mg/kg, ip; type: ADME, organism-based
[8] = target: T3, Muscarinic acetylcholine receptor M1 (Rattus norvegicus, UniProt P08482); assay: Inhibition of rat muscarinic acetylcholine M1 receptor expressed in CHO cells co-expressing Gqi5 preincubated with compound followed by acetylcholine addition at EC80 concentration by calcium mobilization assay; type: functional, cell-based
T3 sequence (P08482 whole entry): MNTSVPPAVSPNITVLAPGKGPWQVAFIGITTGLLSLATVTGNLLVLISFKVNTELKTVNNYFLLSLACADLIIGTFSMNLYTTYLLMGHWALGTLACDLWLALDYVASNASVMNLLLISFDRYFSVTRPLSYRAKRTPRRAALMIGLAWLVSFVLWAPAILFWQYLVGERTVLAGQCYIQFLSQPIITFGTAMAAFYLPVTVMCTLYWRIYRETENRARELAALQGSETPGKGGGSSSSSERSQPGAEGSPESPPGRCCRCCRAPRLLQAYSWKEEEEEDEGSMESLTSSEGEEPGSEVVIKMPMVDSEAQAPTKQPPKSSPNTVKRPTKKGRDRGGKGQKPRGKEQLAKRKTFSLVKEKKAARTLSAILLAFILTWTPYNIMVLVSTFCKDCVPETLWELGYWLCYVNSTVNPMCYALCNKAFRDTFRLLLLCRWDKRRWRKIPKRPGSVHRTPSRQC

[9] = target: Cytochrome P450 2C9 (Homo sapiens, UniProt P11712); assay: Inhibition of CYP2C9 in human liver microsomes using cocktail of isoform-specific probe substrate; type: ADME, Microsome
[10] = Plasma clearance in rat at 3 mg/kg, iv; type: ADME, organism-based
[11] = target: T4, Muscarinic acetylcholine receptor M2 (Homo sapiens, UniProt P08172); assay: Inhibition of human muscarinic acetylcholine M2 receptor expressed in CHO cells co-expressing Gqi5 in the presence of acetylcholine at EC80 concentration by calcium mobilization assay; type: functional, cell-based
T4 sequence (P08172 whole entry): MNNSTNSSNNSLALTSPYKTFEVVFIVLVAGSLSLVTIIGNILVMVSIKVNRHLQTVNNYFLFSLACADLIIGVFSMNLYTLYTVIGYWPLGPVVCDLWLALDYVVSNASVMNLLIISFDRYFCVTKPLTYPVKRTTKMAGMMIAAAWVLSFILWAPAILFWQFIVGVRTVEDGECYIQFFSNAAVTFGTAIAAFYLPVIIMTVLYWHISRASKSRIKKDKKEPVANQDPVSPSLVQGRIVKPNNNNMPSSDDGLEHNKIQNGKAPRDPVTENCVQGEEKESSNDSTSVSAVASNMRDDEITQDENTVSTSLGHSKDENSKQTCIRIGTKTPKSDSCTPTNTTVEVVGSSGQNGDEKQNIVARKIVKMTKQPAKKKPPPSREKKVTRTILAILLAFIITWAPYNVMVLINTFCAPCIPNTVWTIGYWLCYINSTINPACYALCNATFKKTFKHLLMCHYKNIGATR

[12] = target: T5, Muscarinic acetylcholine receptor M1 (Homo sapiens, UniProt P11229); assay: Inhibition of human muscarinic acetylcholine M1 receptor expressed in CHO cells co-expressing Gqi5 preincubated with compound followed by acetylcholine addition at EC80 concentration by calcium mobilization assay; type: functional, cell-based
T5 sequence (P11229 whole entry): T3 sequence (P08482 whole entry) with V5A, S254T, S309P, K320R, G337A, V413I

Cytochrome P450 2C9, sequence (P11712 whole entry, canonical isoform): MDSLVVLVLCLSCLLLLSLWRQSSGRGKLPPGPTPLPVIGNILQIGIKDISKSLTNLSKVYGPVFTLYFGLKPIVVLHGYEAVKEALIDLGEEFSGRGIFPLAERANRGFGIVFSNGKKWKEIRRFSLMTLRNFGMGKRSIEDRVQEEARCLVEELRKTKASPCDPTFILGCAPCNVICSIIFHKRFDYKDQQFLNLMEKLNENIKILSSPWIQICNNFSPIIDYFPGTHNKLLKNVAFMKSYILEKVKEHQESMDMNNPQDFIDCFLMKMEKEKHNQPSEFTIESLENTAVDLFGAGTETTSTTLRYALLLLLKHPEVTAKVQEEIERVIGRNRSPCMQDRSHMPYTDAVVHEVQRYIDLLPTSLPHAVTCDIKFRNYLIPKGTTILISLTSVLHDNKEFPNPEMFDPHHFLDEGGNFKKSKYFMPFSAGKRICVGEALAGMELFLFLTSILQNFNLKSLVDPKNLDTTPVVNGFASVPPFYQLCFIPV

predicted hepatic clearance [2]: 16 mL/min/kg
pIC50 [3]: < 4.52
AUClast [4]: 3980 ng·h/g
Tmax [5]: 2 h
pKi [6]: 7.36
Tmax [7]: 0.5 h
pIC50 [8]: < 5.00
pIC50 [9]: < 4.52
clearance [10]: 257 mL/min/kg
pIC50 [11]: < 5.00
pIC50 [12]: < 5.00
SMILES: CC(=O)Nc1ccc(-c2ccc(NC[C@@H]3CC34CCN(CC3CCOCC3)CC4)nn2)cc1
Ratio IC50 [1]: > 140
